Read-outs that look alike come from different tables or passages of the source.
Tests used:
Assay type in all cases: cell-based
HSV2 = test: Viral qPCR assay, HSV2; settings: infected cells, viral genome copies by qPCR normalized to PPIA, read-out: HSV2 Cell EC50
Procedure: (§1) MRC5 cells, Vero cells, and MeWo cells were obtained from ATCC, and were maintained at 37° C./5% CO2/90% relative humidity in Minimal Essential Medium with 10% fetal bovine serum, […] L-glutamine, 100 units/ml penicillin and 100 ug/ml streptomycin. Assay plates were prepared by dispensing compounds dissolved in DMSO into wells of 384 well collagen-coated plates using an ECHO acoustic dispenser. Each test compound was tested in a 10-point, serial 3-fold dilution. Controls included uninfected cells and infected cells treated only with DMSO. Assays were initiated by mixing selected cells, in suspension, with virus, and dispensing 50 μl/well infected cells to pre-plated compounds. Plates were incubated at 37° C./5% CO2/90% relative humidity for ˜72 hrs to permit genomic replication, and infected cells were lysed by the addition of an equal volume of lysis buffer (10 mM Tris-HCl, pH8, 50 mM KCl, 2 mM MgCl2, 0.45% NP-40, 0.45% Tween-20, and 100 µg/ml proteinase K). An aliquot of the lysate was then transferred to a 384-well PCR plate and incubated at 56° C. for 1 hour, and then at 95° C. for 10 minutes. Levels of the selected viral gene and of the cellular control, PPIA, were measured in separate 10 μl qPCR assays using TaqMan® Gene Expression Master Mix (Applied Biosystems), and an 7900HT Fast Real-Time PCR System with 384-Well Block Module. 7-point, serial 10-fold dilutions of a plasmid standard were run on each plate to generate a standard curve, and genome copies numbers were calculated by plotting experimental Ct onto linear regression of the standard curve. Viral genome copy numbers were normalized by cellular control copy number, and compound effects were normalized to the window defined by the controls. Calculated % effects were fit using a 4-parameter algorithm, and EC50 was reported.

HSV1 = test: Viral qPCR assay, HSV1; settings: infected cells, viral genome copies by qPCR normalized to PPIA, read-out: HSV1 Cell EC50
Procedure: as §1

CMV = test: Viral qPCR assay, CMV; settings: infected cells, viral genome copies by qPCR normalized to PPIA, read-out: CMV Cell EC50
Procedure: as §1

| Compound | EC50 (HSV2; Human alphaherpesvirus 2, 72 h) | EC50 (HSV1; Human alphaherpesvirus 1, 72 h) | EC50 (CMV; ~72 hrs) | EC50 (HSV2; ~72 hrs) | EC50 (HSV1; ~72 hrs) | EC50 (CMV; Human betaherpesvirus 5, 72 h) |
| --- | --- | --- | --- | --- | --- | --- |
| O=C1OC[C@@H]2C[C@@H](Oc3cc4c(=O)n(Cc5ccc(Cl)cc5)c(OC5CCC(O)CC5)nc4cc3-c3cnn(C(F)F)c3)CCN12 (single isomer, unassigned) [Example 141] | 184 nM | 258 nM | 205 nM |  |  |  |
| O=C1OC[C@@H]2C[C@@H](Oc3cc4c(=O)n(Cc5ccc(Cl)cc5)c(OC5CCC(O)CC5)nc4cc3-c3cnn(C(F)F)c3)CCN12 (single isomer, unassigned) [Example 143] |  |  | 95 nM | 181 nM | 213 nM |  |
| Cc1nc2cc(-c3cc4n(n3)C(C(F)(F)F)CN(C)C4)c(O[C@H]3CCN4C(=O)OC[C@@H]4C3)cc2c(=O)n1Cc1ccc(Cl)cc1 (single isomer, unassigned) [Example 151] | 176 nM | 233 nM |  |  |  | 178 nM |
| Cc1nc2cc(-c3cc4n(n3)C(C(F)(F)F)CN(C)C4)c(O[C@H]3CCN4C(=O)OC[C@@H]4C3)cc2c(=O)n1Cc1ccc(Cl)cc1 (single isomer, unassigned) [Example 152] |  |  | 159 nM | 226 nM | 231 nM |  |
| Cc1nc2cc(-c3cc4ccccn4n3)c(O[C@H]3CCN4C(=O)OC[C@@H]4C3)cc2c(=O)n1Cc1ccc(Cl)cc1 [Example 15] | 41 nM | 74 nM |  |  |  | 60 nM |
| Cc1nc2cc(-c3cn4ccnc4s3)c(O[C@H]3CCN4C(=O)OC[C@@H]4C3)cc2c(=O)n1Cc1ccc(Cl)cc1 [Example 16] | 18 nM | 42 nM |  |  |  | 33 nM |
| Cc1nc2nc(-c3ccn(C(F)F)n3)c(O[C@H]3CCN4C(=O)OC[C@@H]4C3)cc2c(=O)n1Cc1ccc(Cl)cc1 [Example 20] | 209 nM | 247 nM |  |  |  | 117 nM |
| O=C1OC[C@@H]2C[C@@H](Oc3cc4c(=O)n(Cc5ccc(Cl)cc5)cnc4nc3-c3cnco3)CCN12 [Example 37] | 11 nM | 19 nM |  |  |  | 20 nM |
| Cc1nc2cc(-c3ccc4ncoc4c3)c(O[C@H]3CCN4C(=O)OC[C@@H]4C3)cc2c(=O)n1Cc1ccc(Cl)cc1 [Example 89] | 273 nM | 436 nM |  |  |  | 375 nM |
| Cc1nc2cc(-c3cn4ccncc4n3)c(O[C@H]3CCN4C(=O)OC[C@@H]4C3)cc2c(=O)n1Cc1ccc(Cl)cc1 [Example 91] | 602 nM | 527 nM |  |  |  | 479 nM |
| Cc1nn(C(F)F)cc1-c1cc2nc(C)n(Cc3ccc(Cl)cc3)c(=O)c2cc1O[C@H]1CCN2C(=O)OC[C@@H]2C1 [Example 92] | 506 nM | 796 nM |  |  |  | 379 nM |
| COc1ncc(-c2cc3nc(C)n(Cc4ccc(Cl)cc4)c(=O)c3cc2O[C@H]2CCN3C(=O)OC[C@@H]3C2)c(C)n1 [Example 93] | 3380 nM | 2590 nM |  |  |  | 1430 nM |
| COc1ncncc1-c1cc2nc(C)n(Cc3ccc(Cl)cc3)c(=O)c2cc1O[C@H]1CCN2C(=O)OC[C@@H]2C1 [Example 94] | 1880 nM | 2410 nM |  |  |  | 1470 nM |
| Cc1nc2cc(-c3cnc4nccn4c3)c(O[C@H]3CCN4C(=O)OC[C@@H]4C3)cc2c(=O)n1Cc1ccc(Cl)cc1 [Example 96] | 3280 nM | 2920 nM |  |  |  | 2060 nM |
| Cc1nc2cc(-c3cc4cnccn4c3)c(O[C@H]3CCN4C(=O)OC[C@@H]4C3)cc2c(=O)n1Cc1ccc(Cl)cc1 [Example 99] | 77 nM | 118 nM |  |  |  | 272 nM |
| Cc1nc2cc(-c3cc4ncccn4n3)c(O[C@H]3CCN4C(=O)OC[C@@H]4C3)cc2c(=O)n1Cc1ccc(Cl)cc1 [Example 100] | 43 nM | 86 nM |  |  |  | 63 nM |
| Cc1nc2cc(-c3nc4cnccn4n3)c(O[C@H]3CCN4C(=O)OC[C@@H]4C3)cc2c(=O)n1Cc1ccc(Cl)cc1 [Example 101] | 88 nM | 223 nM |  |  |  | 449 nM |
| O=C1OC[C@@H]2C[C@@H](Oc3cc4c(=O)n(Cc5ccc(Cl)cc5)c(OCCO)nc4cc3-c3cnn(C(F)F)c3)CCN12 [Example 102] | 37 nM | 71 nM |  |  |  | 135 nM |
| Cc1nc2cc(-c3nc4ncccn4n3)c(O[C@H]3CCN4C(=O)OC[C@@H]4C3)cc2c(=O)n1Cc1ccc(Cl)cc1 [Example 103] | 55 nM | 55 nM |  |  |  | 83 nM |
| Cc1nc2cc(-c3cn4ccccc4n3)c(O[C@H]3CCN4C(=O)OC[C@@H]4C3)cc2c(=O)n1Cc1ccc(Cl)cc1 [Example 104] | 32 nM | 45 nM |  |  |  | 99 nM |

| Compound | EC50 (HSV2; Human alphaherpesvirus 2, 72 h) | EC50 (HSV1; Human alphaherpesvirus 1, 72 h) | EC50 (CMV; ~72 hrs) | EC50 (HSV2; ~72 hrs) | EC50 (HSV1; ~72 hrs) | EC50 (CMV; Human betaherpesvirus 5, 72 h) |
| --- | --- | --- | --- | --- | --- | --- |
| Cc1nc2cc(-c3nc4ccccn4n3)c(O[C@H]3CCN4C(=O)OC[C@@H]4C3)cc2c(=O)n1Cc1ccc(Cl)cc1 [Example 105] | 55 nM | 48 nM |  |  |  | 112 nM |
| N#Cc1nc2cc(-c3cnn(C(F)F)c3)c(O[C@H]3CCN4C(=O)OC[C@@H]4C3)cc2c(=O)n1Cc1ccc(Cl)cc1 [Example 106] | 73 nM | 102 nM |  |  |  | 143 nM |
| Cc1nc2cc(-c3cc4cncnn4c3)c(O[C@H]3CCN4C(=O)OC[C@@H]4C3)cc2c(=O)n1Cc1ccc(Cl)cc1 [Example 107] | 31 nM | 52 nM |  |  |  | 52 nM |
| Cc1nc2cc(-c3cc4n(n3)CCN(C3CCOCC3)C4)c(O[C@H]3CCN4C(=O)OC[C@@H]4C3)cc2c(=O)n1Cc1ccc(Cl)cc1 [Example 108] | 87 nM | 198 nM |  |  |  | 201 nM |
| Cc1nc2cc(-c3cnc(OC4CCOCC4)nc3)c(O[C@H]3CCN4C(=O)OC[C@@H]4C3)cc2c(=O)n1Cc1ccc(Cl)cc1 [Example 109] | 153 nM | 413 nM |  |  |  | 465 nM |
| Cc1ccc(-c2cc3nc(C)n(Cc4ccc(Cl)cc4)c(=O)c3cc2O[C@H]2CCN3C(=O)OC[C@@H]3C2)nn1 [Example 110] | 133 nM | 288 nM |  |  |  | 200 nM |
| Nc1nc2cc(-c3cnn(C(F)F)c3)c(O[C@H]3CCN4C(=O)OC[C@@H]4C3)cc2c(=O)n1Cc1ccc(Cl)cc1 [Example 111] | 60 nM | 101 nM |  |  |  | 85 nM |
| COc1ccc(-c2cc3nc(C)n(Cc4ccc(Cl)cc4)c(=O)c3cc2O[C@H]2CCN3C(=O)OC[C@@H]3C2)nc1 [Example 112] | 81 nM | 148 nM |  |  |  | 142 nM |
| COc1cnc(-c2cc3nc(C)n(Cc4ccc(Cl)cc4)c(=O)c3cc2O[C@H]2CCN3C(=O)OC[C@@H]3C2)cn1 [Example 113] | 1690 nM | 2680 nM |  |  |  | 2970 nM |
| Cc1nc2cc(-c3cnc(OC4CC4)nc3)c(O[C@H]3CCN4C(=O)OC[C@@H]4C3)cc2c(=O)n1Cc1ccc(Cl)cc1 [Example 114] | 124 nM | 323 nM |  |  |  | 348 nM |
| Cc1nc2cc(-c3cnc(C4CCOCC4)nc3)c(O[C@H]3CCN4C(=O)OC[C@@H]4C3)cc2c(=O)n1Cc1ccc(Cl)cc1 [Example 115] | 111 nM | 313 nM |  |  |  | 258 nM |
| Cc1nc2cc(-c3cn4cccnc4n3)c(O[C@H]3CCN4C(=O)OC[C@@H]4C3)cc2c(=O)n1Cc1ccc(Cl)cc1 [Example 116] | 62 nM | 106 nM |  |  |  | 127 nM |
| Cc1cnc(-c2cc3nc(C)n(Cc4ccc(Cl)cc4)c(=O)c3cc2O[C@H]2CCN3C(=O)OC[C@@H]3C2)nc1 [Example 117] | 455 nM | 652 nM |  |  |  | 304 nM |
| Cc1nc2cc(-c3cncnc3)c(O[C@H]3CCN4C(=O)OC[C@@H]4C3)cc2c(=O)n1Cc1ccc(Cl)cc1 [Example 118] | 180 nM | 244 nM |  |  |  | 135 nM |
| Cc1nc2cc(-c3ncccn3)c(O[C@H]3CCN4C(=O)OC[C@@H]4C3)cc2c(=O)n1Cc1ccc(Cl)cc1 [Example 119] | 921 nM | 933 nM |  |  |  | 397 nM |
| O=C1OC[C@@H]2C[C@@H](Oc3cc4c(=O)n(Cc5ccc(Cl)cc5)c(CCN5CCOCC5)nc4cc3-c3cnn(C(F)F)c3)CCN12 [Example 120] | 1020 nM | 2410 nM |  |  |  | 957 nM |
| O=C1OC[C@@H]2C[C@@H](Oc3cc4c(=O)n(Cc5ccc(Cl)cc5)c(CC5CCOCC5)nc4cc3-c3cnn(C(F)F)c3)CCN12 [Example 121] | 128 nM | 188 nM |  |  |  | 299 nM |
| Cc1nc2cc(-c3cnccn3)c(O[C@H]3CCN4C(=O)OC[C@@H]4C3)cc2c(=O)n1Cc1ccc(Cl)cc1 [Example 122] | 543 nM | 844 nM |  |  |  | 382 nM |
| Cc1nc2cc(-c3cnc(C(F)F)nc3)c(O[C@H]3CCN4C(=O)OC[C@@H]4C3)cc2c(=O)n1Cc1ccc(Cl)cc1 [Example 124] | 120 nM | 198 nM |  |  |  | 163 nM |

Source: US12497405B2, “Bicyclic heterocycle compounds methods of use thereof for the treatment of herpes viruses” (Merck Sharp & Dohme LLC, priority 2019, dated 2025)
